Measured values from ChEMBL document CHEMBL3046056, “Design, synthesis, and biological activity of novel 4-(3,4-dimethoxyphenyl)-2-methylthiazole-5-carboxylic acid derivatives” (2004).

How the values were obtained:
Format in all cases: functional
[1] = system: Empoasca fabae; test: Insecticidal activity against Empoasca fabae (potato leafhopper) at 600 g ai/ha
[2] = system: Phytophthora infestans; test: Fungicidal activity against tomato late blight disease-causing Phytophthora infestans at 375 g ai/ha
[3] = system: Myzus persicae; test: Insecticidal activity against Myzus persicae (green peach aphid) at 600 g ai/ha
[4] = system: Phytophthora infestans; test: Fungicidal activity against tomato late blight disease-causing Phytophthora infestans at 300 g ai/ha
[5] = system: Empoasca fabae; test: Insecticidal activity against Empoasca fabae (potato leafhopper) at 300 g ai/ha
[6] = system: Myzus persicae; test: Insecticidal activity against Myzus persicae (green peach aphid) at 300 g ai/ha

SMILES | Activity [1] [%] | Activity [2] [%] | Activity [3] [%] | Activity [4] [%] | Activity [5] [%] | Activity [6] [%]
COc1ccc(-c2nc(C)sc2C(=O)OCC(C)C)cc1OC | 20 | 75 | 20 | – | – | –
COc1ccc(-c2nc(C)sc2C(=O)N(C)OC)cc1OC | 20 | 50 | 20 | – | – | –
C#CC(C)(CC)NC(=O)c1sc(C)nc1-c1ccc(OC)c(OC)c1 (stereo not drawn) | 0 | 90 | 20 | – | – | –
CCN(CC)C(=O)c1sc(C)nc1-c1ccc(OC)c(OC)c1 | 40 | 0 | 0 | – | – | –
COc1ccc(/C(=C\C(=O)N2CCOCC2)c2ccc(F)cc2)cc1OC [FLUMORPH] | – | – | – | 100 | 0 | 0
C#CCOC(=O)c1sc(C)nc1-c1ccc(OC)c(OC)c1 | 20 | 0 | 20 | – | – | –
COc1ccc(-c2nc(C)sc2C(=O)N2CCOCC2)cc1OC | 20 | 90 | 20 | – | – | –
COc1ccc(-c2nc(C)sc2C(=O)O)cc1OC | 20 | 0 | 0 | – | – | –
COc1ccc(-c2nc(C)sc2C(=O)NCC#N)cc1OC | 0 | 0 | 0 | – | – | –
C#CC(C)(C)NC(=O)c1sc(C)nc1-c1ccc(OC)c(OC)c1 | 40 | 0 | 60 | – | – | –
CCN(C)C(=O)c1sc(C)nc1-c1ccc(OC)c(OC)c1 | 40 | 0 | 40 | – | – | –
COc1ccc(-c2nc(C)sc2C(=O)NCCCn2ccnc2)cc1OC | 0 | 75 | 0 | – | – | –
COc1ccc(-c2nc(C)sc2C(=O)Nc2ccccc2)cc1OC | 40 | 0 | 20 | – | – | –
COc1ccc(C(=CC(=O)N2CCOCC2)c2ccc(Cl)cc2)cc1OC [DIMETHOMORPH] | – | – | – | 100 | 0 | 0
COC(=O)c1sc(C)nc1-c1ccc(OC)c(OC)c1 | 40 | 0 | 0 | – | – | –
COc1ccc(-c2nc(C)sc2C(N)=O)cc1OC | 20 | 0 | 0 | – | – | –
